The record followed here is patent US20230084927A1, “GLUCOSE UPTAKE INHIBITORS AND USES THEREOF” (METABOMED LTD., priority 2019, published 2023).

Data set [1] concerns MiaPaca2 (Pancreatic cancer). Briefly: Toxicity assay with or without rotenone. The format is cell-based. The following applies: Homo sapiens, MIA PaCa-2, 72 hours. Here is the method: (§1) Toxicity assay: Cells were growing in 96 well plates in DMEM F12 with 17 mM glucose, 0.5 mM Sodium Pyruvate, 1 mM Glutamine and 3% FBS. The cells were treated with the indicated compounds (10 different concentrations) with or without 25 nM rotenone. Viability was determined after 72 hours of treatment using CellTiter Glo reagent (Promega). EC50 was calculated using Prism software.

For data set [2], the system named is Panc1 (Pancreatic cancer). Briefly: Toxicity assay with or without rotenone. The format is cell-based. The following applies: Homo sapiens, PANC-1, 72 hours. Here is the method: as §1
Data set [3] relates to MDA-MB-468 (Breast cancer). As to the kind of experiment: Toxicity assay with or without rotenone. The format is cell-based. The following applies: Homo sapiens, 72 hours. The method, then: as §1
In data set [4] the test system is MM.1S (Multiple myeloma). Briefly: Toxicity assay with or without rotenone. The data set is classed as cell-based. The following applies: Homo sapiens, MM1.S, 72 hours. Here is the method: as §1
In data set [5] the test system is HCT116 (Colon cancer). Briefly: Toxicity assay with or without rotenone. The format is cell-based. The following applies: Homo sapiens, HCT-116, 72 hours. The method, then: as §1
The nature of data set [6]: Plasma glucose levels in mice after oral administration. The format is in vivo. The following applies: 2 mg/Kg. The method, then:
FIG. 8 depicts the glucose levels in mice plasma after oral administration of 2 mg/Kg of compound 111. Compound 111 at 2 mg/kg was orally administrated to mice. Blood samples were taken at different time points thereafter and Glucose level was determined.

The test system of data set [7] is SDH-KO cells (SDH-deficient tumors). As to the kind of experiment: Tumor volume of SDH-KO cells vs. time in mice on ketogenic diet. The following applies: treated two weeks post-injection, prior to tumor formation. The data set is classed as in vivo. From the text:
FIG. 10 depicts the tumor volume of SDH-KO cells vs. time in mice on ketogenic diet, treated for two weeks post-injection, but prior to tumor formation.

Data set [8] is described as follows: Glucose levels and Maximum Tolerated Dose in mice at different diets. The data set is classed as in vivo. From the text: Glucose Levels as Measured in Mice after Different Dosages of Compound 111 at Different Diets.
Data set [9] deals with SDH-WT cells. As to the kind of experiment: Cellular / differential toxicity assay (CellTiter-Glo, 3 days). The following applies: Mus musculus, 72 h, toxicity, SDH-WT cells, 3 days, CellTiter-Glo; read-out: EC50 (uM) SDH-WT. The format is cell-based, murine. In outline: (§2)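 Isogenic SDHB-deficient (HRAS-transformed SDH-KO) and SDH-WT cells grown in DMEM-F12 with 1 mM glutamine and 3% FBS, plated with compound (10-point dilution from 10 uM to 0.0065 uM or lower) for 3 days at 37 °C, 5% CO2. Viability by CellTiter-Glo luminescence; EC50 calculated.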
Background: In ATP-based viability assays light output follows the ATP content of the culture.

Data set [10] concerns SDH-KO-HRAS cells (SDHB-deficient). The description is as above. The format is cell-based, murine. The following applies: Mus musculus, 72 h, toxicity, SDH-KO cells, 3 days, CellTiter-Glo; read-out: EC50 (uM) SDH-KO-HTAS-C17. The method, boiled down:
as §2

Each structure is given as a SMILES string. Like-named read-outs stand apart in the source and are kept apart here. Where only a bound is given, the exact number is not on record here.

The EC50 is the midpoint of the concentration-response curve. Take `CC(=O)Nc1ccc(CCNc2ncnc3c2sc2nc4c(cc23)COC(C)(C)C4)cc1` [Compound 111]: the concentration giving a half-maximal response (EC50) in data set [1] (MiaPaca2, with 25 nM rotenone, read-out: EC50 (nM) with Rotenone) was 61 nM; in data set [1] (MiaPaca2, without rotenone, read-out: EC50), 37000 nM; in data set [2] (Panc1, with 25 nM rotenone, read-out: EC50 (nM) with Rotenone), 91 nM; in data set [2] (Panc1, without rotenone, read-out: EC50), 136000 nM; in data set [3] (MDA-MB-468, with 25 nM rotenone, read-out: EC50 (nM) with Rotenone), 1400 nM; in [3] (MDA-MB-468, without rotenone, read-out: EC50), more than 30000 nM. Also, the concentration giving a half-maximal response (EC50) was 52 nM in data set [4] (with 25 nM rotenone, read-out: EC50 (nM) with Rotenone); 79000 nM in data set [4] (without rotenone, read-out: EC50); 510 nM in data set [5] (HCT116, with 25 nM rotenone, read-out: EC50 (nM) with Rotenone); 9700 nM in data set [5] (HCT116, without rotenone, read-out: EC50); more than 10 µM in data set [9]; less than 1 µM in data set [10]. In addition, the “level of glucose in the plasma” value in [6] is “increase”. Besides, the “tumor onset and growth (tumor volume vs. time)” value in data set [7] is “delays tumor onset and growth”. The “elevation in plasma glucose levels on ketogenic diet” value in data set [8] (ketogenic diet) was “delayed”. The “Maximum Tolerated Dose (MTD) on ketogenic diet” value in [8] (ketogenic diet vs other diet) is given as “doubled”. In [8] (ketogenic diet, two weeks of treatment), the “tolerability on ketogenic diet” value is given as “up to 4 mg/Kg”.
